Substitutions are numbered along the chain they refer to. Read-outs that look alike come from different tables or passages of the source. Where a SMILES comes first, the peptide text is derived from it. Bridges are numbered along the chain shown (N, C = ends).
Columns and labels:
Experiment in all cases: ERK1/2 phosphorylation
Assay type in all cases: cell-based
hCTR I300A = biological target: T1, hCTR I300A (Homo sapiens, UniProt P30988, I300A); conditions: CV1-FlpIn cells, mean ± S.E.M.; for Emax: pERK maximal response; for EC50: pERK, three-parameter logistic fit
T1 construct: c-Myc (N); expressed in transfected cells
T1 sequence (P30988 25-474 I300A): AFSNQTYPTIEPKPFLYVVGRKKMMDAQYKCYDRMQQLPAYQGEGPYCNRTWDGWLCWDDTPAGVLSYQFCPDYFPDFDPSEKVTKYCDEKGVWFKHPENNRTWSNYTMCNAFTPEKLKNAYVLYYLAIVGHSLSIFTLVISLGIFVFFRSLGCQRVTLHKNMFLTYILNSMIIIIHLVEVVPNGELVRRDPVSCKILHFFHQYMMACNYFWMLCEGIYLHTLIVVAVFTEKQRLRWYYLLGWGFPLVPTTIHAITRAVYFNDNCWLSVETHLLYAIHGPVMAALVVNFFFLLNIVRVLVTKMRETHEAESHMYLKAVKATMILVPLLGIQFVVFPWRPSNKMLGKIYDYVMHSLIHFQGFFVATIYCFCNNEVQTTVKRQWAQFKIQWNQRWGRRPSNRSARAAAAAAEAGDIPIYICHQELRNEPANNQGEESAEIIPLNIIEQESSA
Method in brief: (§1)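 Overnight-plated cells at 2.5 × 10^4/well are stimulated, and ERK1/2 phosphorylation is referenced to the 10% FBS response at 6 min before logistic curve fitting.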

hCTR T280A = biological target: T2, hCTR T280A (Homo sapiens, UniProt P30988, T280A); conditions: CV1-FlpIn cells, mean ± S.E.M.; for Emax: pERK maximal response; for EC50: pERK, three-parameter logistic fit
T2 construct: expressed in transfected cells
T2 sequence (P30988 25-474 T280A): T1 sequence (P30988 25-474 I300A) with T256A, A276I
Method in brief: as §1

hCTR V283A = biological target: T3, hCTR V283A (Homo sapiens, UniProt P30988, V283A); conditions: CV1-FlpIn cells, mean ± S.E.M.; for Emax: pERK maximal response; for EC50: pERK, three-parameter logistic fit
T3 construct: expressed in transfected cells
T3 sequence (P30988 25-474 V283A): T1 sequence (P30988 25-474 I300A) with V259A, A276I
Method in brief: as §1

hCTR W361A = biological target: T4, hCTR W361A (Homo sapiens, UniProt P30988, W361A); conditions: for Emax: read-out: Emax (% WT); for EC50: pERK, three-parameter logistic fit
T4 construct: expressed in transfected cells
T4 sequence (P30988 25-474 W361A): T1 sequence (P30988 25-474 I300A) with A276I, W337A
Method in brief: as §1

hCTR D287A = biological target: T5, hCTR D287A (Homo sapiens, UniProt P30988, D287A); conditions: CV1-FlpIn cells, mean ± S.E.M.; for Emax: pERK maximal response
T5 construct: c-Myc (N); expressed in transfected cells
T5 sequence (P30988 25-474 D287A): T1 sequence (P30988 25-474 I300A) with D263A, A276I
Method in brief: as §1

[1] = pERK maximal response, hCTR W361A, CV1-FlpIn cells, mean ± S.E.M.
[2] = hCTR W361A, CV1-FlpIn cells, mean ± S.E.M.

Row | EC50 (hCTR I300A) | EC50 (hCTR T280A) | EC50 (hCTR V283A) | Emax (hCTR W361A; [1]) | EC50 (hCTR W361A; [2]) | EC50 (hCTR D287A; pERK, three-parameter logistic fit) | SMILES | Emax (hCTR I300A) | Emax (hCTR T280A) | Emax (hCTR V283A) | Emax (hCTR D287A) | Emax (hCTR W361A)
1 | 67.6 nM | 53.7 nM | 60.3 nM | 49 ± 8% | 117 nM | – | CC(C)C[C@H](NC(=O)CNC(=O)[C@H](C)NC(=O)[C@H](CC(C)C)NC(=O)[C@H](CCCNC(=N)N)NC(=O)[C@H](Cc1cnc[nH]1)NC(=O)[C@@H](NC(=O)[C@@H](NC(=O)[C@@H]1CSSC[C@H](NC(=O)[C@H](C)N)C(=O)N[C@@H](CC(=O)O)C(=O)N[C@@H]([C@@H](C)O)C(=O)N[C@@H](C)C(=O)N[C@@H]([C@@H](C)O)C(=O)N1)C(C)C)[C@@H](C)O)C(=O)N[C@@H](CC(C)C)C(=O)N[C@@H](CO)C(=O)N[C@@H](CCCNC(=N)N)C(=O)N[C@@H](CO)C(=O)NCC(=O)NCC(=O)N[C@H](C(=O)N[C@H](C(=O)N[C@@H](CCCCN)C(=O)N[C@@H](CC(N)=O)C(=O)N[C@@H](CC(N)=O)C(=O)N[C@@H](Cc1ccccc1)C(=O)N[C@H](C(=O)N1CCC[C@H]1C(=O)N[C@H](C(=O)N[C@@H](CC(N)=O)C(=O)N[C@H](C(=O)NCC(=O)N[C@@H](CO)C(=O)N[C@@H](CCCCN)C(=O)N[C@@H](C)C(=O)N[C@@H](Cc1ccccc1)C(N)=O)C(C)C)[C@@H](C)O)C(C)C)C(C)C)C(C)C [hαCGRP] | 61 ± 13% | 106 ± 12% | 81 ± 7% | – | –
2 | 0.282 nM | 2.04 nM | 2.24 nM | 76 ± 6% | 6.31 nM | 12.6 nM | CSCC[C@H](NC(=O)CNC(=O)[C@H](CO)NC(=O)[C@H](Cc1ccccc1)NC(=O)[C@H](CCCNC(=N)N)NC(=O)[C@H](Cc1c[nH]cn1)NC(=O)[C@H](Cc1ccccc1)NC(=O)[C@H](CC(N)=O)NC(=O)[C@H](CC(N)=O)NC(=O)[C@H](CC(C)C)NC(=O)[C@H](CC(N)=O)NC(=O)[C@H](CCCNC(=N)N)NC(=O)[C@H](Cc1c[nH]c2ccccc12)NC(=O)[C@H](Cc1ccc(O)cc1)NC(=O)[C@H](C)NC(=O)[C@H](CO)NC(=O)[C@H](CC(C)C)NC(=O)[C@@H](NC(=O)[C@@H]1CSSC[C@H](N)C(=O)N[C@@H](CO)C(=O)N[C@@H](CC(N)=O)C(=O)N[C@@H](CC(C)C)C(=O)N[C@@H](CO)C(=O)N[C@@H]([C@@H](C)O)C(=O)N1)C(C)C)C(=O)NCC(=O)N[C@@H](Cc1ccccc1)C(=O)NCC(=O)N1CCC[C@H]1C(=O)N[C@@H](CCC(=O)O)C(=O)N[C@H](C(=O)N1CCC[C@H]1C(N)=O)[C@@H](C)O [pCT] (H-CSNLSTCVLSAYWRNLNNFHRFSGMGFGPETP-NH2; disulfide 1-7) | 54 ± 3% | 160 ± 10% | 109 ± 12% | 27 ± 3% | –
3 | – | – | – | – | – | – | CC(C)C[C@H](NC(=O)[C@H](CCCCN)NC(=O)CNC(=O)[C@H](CC(C)C)NC(=O)[C@@H](NC(=O)[C@@H]1CSSC[C@H](N)C(=O)N[C@@H](CO)C(=O)N[C@@H](CC(N)=O)C(=O)N[C@@H](CC(C)C)C(=O)N[C@@H](CO)C(=O)N[C@@H]([C@@H](C)O)C(=O)N1)C(C)C)C(=O)N[C@@H](CO)C(=O)N[C@@H](CCC(N)=O)C(=O)N[C@@H](CCC(=O)O)C(=O)N[C@@H](CC(C)C)C(=O)N[C@@H](Cc1c[nH]cn1)C(=O)N[C@@H](CCCCN)C(=O)N[C@@H](CC(C)C)C(=O)N[C@@H](CCC(N)=O)C(=O)N[C@H](C(=O)N[C@@H](Cc1ccc(O)cc1)C(=O)N1CCC[C@H]1C(=O)N[C@@H](CCCNC(=N)N)C(=O)N[C@H](C(=O)N[C@@H](CC(N)=O)C(=O)N[C@H](C(=O)NCC(=O)N[C@@H](CO)C(=O)NCC(=O)N[C@H](C(=O)N1CCC[C@H]1C(N)=O)[C@@H](C)O)[C@@H](C)O)[C@@H](C)O)[C@@H](C)O [sCT] | 63 ± 3% | 158 ± 12% | 133 ± 10% | 39 ± 2% | 125 ± 5%
4 | – | – | – | – | – | – | CC[C@H](C)[C@H](NC(=O)[C@H](C)NC(=O)[C@@H](NC(=O)[C@H](CCC(N)=O)NC(=O)[C@@H]1CCCN1C(=O)[C@H](Cc1ccccc1)NC(=O)[C@@H](NC(=O)[C@H](Cc1c[nH]cn1)NC(=O)[C@H](Cc1ccccc1)NC(=O)[C@H](CCCCN)NC(=O)[C@H](CC(N)=O)NC(=O)[C@H](Cc1ccccc1)NC(=O)[C@H](CC(=O)O)NC(=O)[C@H](CCC(N)=O)NC(=O)[C@@H](NC(=O)[C@H](Cc1ccc(O)cc1)NC(=O)[C@@H](NC(=O)CNC(=O)[C@H](CC(C)C)NC(=O)[C@H](CCSC)NC(=O)[C@@H]1CSSC[C@H](N)C(=O)NCC(=O)N[C@@H](CC(N)=O)C(=O)N[C@@H](CC(C)C)C(=O)N[C@@H](CO)C(=O)N[C@@H]([C@@H](C)O)C(=O)N1)[C@@H](C)O)[C@@H](C)O)[C@@H](C)O)[C@@H](C)O)C(=O)NCC(=O)N[C@H](C(=O)NCC(=O)N[C@@H](C)C(=O)N1CCC[C@H]1C(N)=O)C(C)C [hCT] | 65 ± 6% | 168 ± 12% | 155 ± 14% | 35 ± 5% | 112 ± 6%
5 | – | – | – | – | – | – | CC(C)C[C@H](NC(=O)[C@H](CC(N)=O)NC(=O)[C@H](CC(N)=O)NC(=O)[C@H](CO)NC(=O)[C@H](CO)NC(=O)[C@H](CCCNC(=N)N)NC(=O)[C@@H](NC(=O)[C@H](CC(C)C)NC(=O)[C@H](Cc1ccccc1)NC(=O)[C@H](CC(N)=O)NC(=O)[C@H](C)NC(=O)[C@H](CC(C)C)NC(=O)[C@H](CCCNC(=N)N)NC(=O)[C@H](CCC(N)=O)NC(=O)[C@@H](NC(=O)[C@H](C)NC(=O)[C@@H]1CSSC[C@H](NC(=O)[C@@H](N)CCCCN)C(=O)N[C@@H](CC(N)=O)C(=O)N[C@@H]([C@@H](C)O)C(=O)N[C@@H](C)C(=O)N[C@@H]([C@@H](C)O)C(=O)N1)[C@@H](C)O)C(C)C)C(=O)NCC(=O)N1CCC[C@H]1C(=O)N[C@H](C(=O)N[C@@H](CC(C)C)C(=O)N1CCC[C@H]1C(=O)N1CCC[C@H]1C(=O)N[C@H](C(=O)N[C@@H](CC(N)=O)C(=O)N[C@H](C(=O)NCC(=O)N[C@@H](CO)C(=O)N[C@@H](CC(N)=O)C(=O)N[C@H](C(=O)N[C@@H](Cc1ccc(O)cc1)C(N)=O)[C@@H](C)O)C(C)C)[C@@H](C)O)C(C)C [rAmy] | 44 ± 5% | 110 ± 11% | 83 ± 9% | – | 42 ± 9%
